The values that follow come from publication PMC12121771, “Innovation of eco-friendly TiO2 nano catalyst for new pyrimidine carbonitiriles candidates, assessed for significant antioxidant activity, anti-inflammatory effects, and by insilico studies” (PLOS One, 2025).

The test system of one series is hERG. Particulars: similar compounds listed by Pred-hERG/LabMol, Fig 9 and Fig 10, reference not given; cited from earlier work.
Series [1] in a line: DPPH radical scavenging method (antioxidant activity). The conditions noted are these: for IC50ug/ml (DPPH scavenging): 0.1 mM DPPH in ethanol, 30 minutes, absorbance 517 nm, triplicate; for IC50: IC50 ug/ml converted with molecular wt. The procedure:
The antioxidant activity of the newly synthesized compounds was evaluated using DPPH (2, 2-diphenyl-1-picrylhydrazyl (DPPH) assay). This assay measures the ability of a compound to neutralize the stable free radical DPPH by donating an electron or hydrogen atom. The results are illustrated in Table 2 and Fig 3. All the tests and analyses were undertaken in three replicates, and the results were averaged.
Different compounds’ free radical scavenging activity was measured by 1, 1- diphenyl-2-[…] (DPPH). In brief, a 0.1 mM solution of DPPH in ethanol was prepared. This solution (1 ml) was added to 3 ml. of the different compounds in ethanol at various concentrations (3.9, 7.8, 15.62, 31.25, 62.5, 125, 250, 500, 1000 μg/ml). Here, only those compounds solubilized in ethanol and their various concentrations were prepared by dilution. The mixture was shaken vigorously and allowed to stand at room temperature for 30 minutes. Then, absorbance was measured at 517 nm by using a spectrophotometer (UV-VIS Milton Roy). The reference standard compound used was ascorbic acid, and the experiment was done in triplicate. The IC 50 value of the sample, which is the concentration of sample required to inhibit 50% of the DPPH free radical, was calculated using the Log dose inhibition curve. The lower absorbance of the reaction mixture indicates higher free radical activity. The percent DPPH scavenging effect was calculated using the following equation: DPPH scavenging effect (%), or percent inhibition = A0 - A 1/ A0 × 100. A0 is the absorbance of the control reaction, and A1 is the absorbance in the presence of a test or standard sample [39].

The nature of series [2]: Hemolytic assay (HRBC membrane stabilization, anti-inflammatory activity). In kind it is cell-based, human. Particulars: human, human red blood cells, 2% suspension, pH 7.4, 2% RBC, 1 hour 37°C; for hemolysis at 1 h, 100 ug/ml: Conc. 100 ug/ml; for hemolysis at 1 h, 200 ug/ml: Conc. 200 ug/ml; for hemolysis at 1 h, 400 ug/ml: Conc. 400 ug/ml; for hemolysis at 1 h, 600 ug/ml: Conc. 600 ug/ml; for hemolysis at 1 h, 800 ug/ml: Conc. 800 ug/ml; for hemolysis at 1 h, 1000 ug/ml: Conc. 1000 ug/ml. As to the method: (§1) The hemolysis essay of the synthesized compounds is summarized in Table 3 and Fig 4; the mean absorption rate of the samples, with isotonic solution Ab, and hemolysis % were calculated with a standard deviation. HRBC and membrane stabilization assay results provide valuable information about the potential anti-inflammatory effects of the newly synthesized pyrimidine carbonitrile derivatives. […] The results for the anti-inflammatory activity are in agreement and homogenous with those obtained from the antioxidant activity of the same compounds, as shown in Table 3. The interconnection between inflammation and oxidative stress plays a vital role in the induction of several chronic diseases, such as diabetes, rheumatoid arthritis, and inflammatory bowel disease—inflammation results in the release of inflammatory mediators and, subsequently, tissue damage. Oxidative stress occurs due to an imbalance between the production of the reactive oxygen species and the ability of the body to neutralize them. Several cellular mechanisms are involved in the anti-inflammatory activity of the tested compounds. […] The cellular mechanism of action was detected by suppression of myeloperoxidase and granulocyte superoxide formation. […] In addition, other mechanisms may explain the anti-inflammatory activity through the inhibitory effect on […] and lipo-oxygenase enzymes.
(§2) The hemolytic assay was performed using the method reported in [37, 40, 41]. Freshly collected human red blood cells were washed thrice with 150 mM NaCl (2500 rpm for 10 minutes). The plasma was removed, and the cells were suspended in phosphate buffer saline (pH 7.4) for 2% RBC concentration. Double-folded dilution concentrations (1000, 800, 600, 400, 200, 100, 50 μg/ml) of the compound were mixed with […] of RBC solutions, and the final reaction mixture volume was measured up to 1 ml by adding PBS. The reaction mixture was then placed in the water bath for 1 hour at 37°C. After incubation, the reaction mixture was centrifuged at 2500 rpm for 15 minutes. The supernatant was collected, and the optical density was measured at 541 nm, keeping the phosphate buffer saline blank. Deionized water was used as a positive control. The experiment was carried out in triplicate, and the mean ± SD was calculated.
(§3) Percentageofhemolysis=Absorbanceofsample−Absorbanceofblank×100/Absorbanceofpositivecontrol

Another series deals with human red blood cells. The series is described as above. Type of series: cell-based. The conditions noted are these: Conc. 100 ug/ml, 2% RBC, 1 hour 37°C. As to the method: as §1, §2, §3

Converted amounts (≈) assume the structure as drawn.

In the case of `N#Cc1c(-c2ccccc2)cc(-c2ccccc2)nc1N=C1SC(=C2SC(c3ccccc3)=NN2c2ccccc2)C(=O)N1c1ccccc1` [CHEMBL3408393], the “hERG Blocker / Non-Blocker annotation of similar compounds” value (shortened to “hERG Blocker / Non-Blocker annotation”) in the series on hERG is reported as “Blocker”.
As to `N#Cc1ccc(C2N=C3SCC=C(N)N3C(=O)C2C#N)cc1` (centres unmarked) [Compound 5, 4-Amino-8-(4-cyanophenyl)-6-oxo-7,8-dihydro-2H,6H-pyrimido[2,1-b][1,3]thiazine-7-carbonitrile], in series [1], the “IC50ug/ml (DPPH scavenging)” value was 5.62 µg/mL (≈ 18.2 µM) and the IC50 worked out at 18.2 µM. In series [2], this compound registered a hemolysis at 1 h, 100 ug/ml of 0.2%; a hemolysis at 1 h, 200 ug/ml of 0.4%; a hemolysis at 1 h, 400 ug/ml of 1.4%; a hemolysis at 1 h, 600 ug/ml of 5.5%. Further, in series [2], the hemolysis at 1 h, 800 ug/ml turned out to be 5.9% and the hemolysis at 1 h, 1000 ug/ml was found to be 7%.
Consider `CC(=O)CSC1=NC(c2ccc(C#N)cc2)C(C#N)C(=O)N1` (centres unmarked) [Compound 4, 4-(4-Cyanophenyl)-6-oxo-2-((2-oxo-propyl)thio)-1,4,5,6-tetrahydro-pyrimidine-5-carbonitrile], for which, in series [1], the “IC50ug/ml (DPPH scavenging)” value came to 35.31 µg/mL (≈ 113 µM) and half-maximal inhibition (IC50) required 113 µM. In series [2], this compound registered a hemolysis at 1 h, 100 ug/ml of 1.3%; a hemolysis at 1 h, 200 ug/ml of 1.8%; a hemolysis at 1 h, 400 ug/ml of 3.6%; a hemolysis at 1 h, 600 ug/ml of 5.9%. Moreover, in series [2], the hemolysis at 1 h, 800 ug/ml was 7.8% and the hemolysis at 1 h, 1000 ug/ml was 9.3%.
Turning to `N#CCSC1=NC(c2ccc(C#N)cc2)C(C#N)C(=O)N1` (centres unmarked) [Compound 3, 2-((Cyanomethyl)thio)-4-(4-cyanophenyl)-6-oxo-1,4,5,6-trtrahydropyrimidine-5-carbonitrile], in series [1], the “IC50ug/ml (DPPH scavenging)” value worked out at 35.9 µg/mL (≈ 122 µM) and the IC50 is 122 µM. Also, in series [2], the hemolysis at 1 h, 100 ug/ml is 0.1%; the hemolysis at 1 h, 200 ug/ml came out at 0.3%; the hemolysis at 1 h, 400 ug/ml came to 0.7%; the hemolysis at 1 h, 600 ug/ml was found to be 1.2%. Besides, the hemolysis at 1 h, 800 ug/ml in series [2] was found to be 2.3%.
As to `N#Cc1ccc(C2N=C(Nc3nc4ccccc4s3)NC(=O)C2C#N)cc1` (centres unmarked) [Compound 8, 2-(Benzo[d]thiazol-2-ylamino)-4-(4-cyanophenyl)-6-oxo-1,4,5,6-tetrahydro pyrimidine-5-carbonitrile], in series [1], the “IC50ug/ml (DPPH scavenging)” value came out at 6.21 µg/mL (≈ 16.7 µM) and half-maximal inhibition (IC50) required 16.7 µM. In series [2], the hemolysis at 1 h, 100 ug/ml came out at 0%; the hemolysis at 1 h, 200 ug/ml is 0.1%; the hemolysis at 1 h, 400 ug/ml came out at 0.9%; the hemolysis at 1 h, 600 ug/ml was 1.3%. Also, in series [2], the hemolysis at 1 h, 800 ug/ml worked out at 3% and the hemolysis at 1 h, 1000 ug/ml worked out at 3.7%. Also, the Hemolysis % entry with human red blood cells is “no hemolysis”.
`N#Cc1c(-c2ccccc2)cc(-c2ccccc2)nc1N=C1SC(=C2SC(C(=O)Nc3ccccc3)=NN2c2ccccc2)C(=O)N1c1ccccc1` [CHEMBL3408396]: the “hERG Blocker / Non-Blocker annotation” value in the series on hERG is “Blocker”.
On to `O=C1O[C@H]([C@@H](O)CO)C(O)=C1O` [Ascorbic acid, reference compound], for which, in series [1], the “IC50ug/ml (DPPH scavenging)” value stood at 4.63 µg/mL (≈ 26.3 µM) and the IC50 was 26.3 µM.
In the case of `N#Cc1c(-c2ccccc2)cc(-c2ccccc2)nc1N=c1sc(C(=O)Nc2ccccc2)nn1-c1ccccc1` [CHEMBL3408390], the “hERG Blocker / Non-Blocker annotation” value with hERG is reported as “Blocker”.
Consider `CC(=O)C1=NN(c2ccccc2)C(=C2SC(=Nc3nc(-c4ccccc4)cc(-c4ccccc4)c3C#N)N(c3ccccc3)C2=O)S1` [CHEMBL3408394], for which the “hERG Blocker / Non-Blocker annotation” value in the series with hERG is “Blocker”.
Turning to `CSC1=NC(c2ccc(C#N)cc2)C(C#N)C(=O)N1` (centres unmarked) [Compound 2, 4-(4-Cyanophenyl)-2-(methylthio)-6-oxo-1,4,5,6-tetrahydro pyrimidine-5-carbonitrile], the “IC50ug/ml (DPPH scavenging)” value in series [1] is 10.09 µg/mL (≈ 37.3 µM). In series [2], this compound had a hemolysis at 1 h, 100 ug/ml of 0%; a hemolysis at 1 h, 200 ug/ml of 0.1%; a hemolysis at 1 h, 400 ug/ml of 0.1%; a hemolysis at 1 h, 600 ug/ml of 0.3%. In series [2], the hemolysis at 1 h, 800 ug/ml worked out at 0.3% and the hemolysis at 1 h, 1000 ug/ml was determined as 2.2%. Further, the Hemolysis % result in the series on human red blood cells is recorded as “no hemolysis”.
With `N#Cc1ccc(C2N=C(NNc3ccccc3)NC(=O)C2C#N)cc1` (centres unmarked) [Compound 9, 4-(4-Cyanophenyl)-6-oxo-2-(2-phenylhydrazine)-1,4,5,6-tetrahydro pyrimidine-5-carbonitrile], in series [1], the “IC50ug/ml (DPPH scavenging)” value turned out to be 212.28 µg/mL (≈ 643 µM) and the midpoint of inhibition, the IC50, lay at 643 µM. Further, in series [2], the hemolysis at 1 h, 100 ug/ml stood at 2.9%; the hemolysis at 1 h, 200 ug/ml came out at 4.3%; the hemolysis at 1 h, 400 ug/ml was 5%; the hemolysis at 1 h, 600 ug/ml was 9%. In series [2], this compound gave a hemolysis at 1 h, 800 ug/ml of 10% and a hemolysis at 1 h, 1000 ug/ml of 14.4%.
As to `CCOC(=O)C1=NN(c2ccccc2)C(=C2SC(=Nc3nc(-c4ccccc4)cc(-c4ccccc4)c3C#N)N(c3ccccc3)C2=O)S1` [CHEMBL3408395], in the series on hERG, the “hERG Blocker / Non-Blocker annotation” value is on record as “Blocker”.
In the case of `N#Cc1ccc(C2NC(=S)NC(=O)C2C#N)cc1` (centres unmarked) [Compound 1, 4-(4-cyanophenyl)-6-oxo-2-thioxohexahydropyrimidine-5-carbonitrile], in series [1], the “IC50ug/ml (DPPH scavenging)” value was determined as 25.13 µg/mL (≈ 98.1 µM) and it took 98.1 µM to reach half-maximal inhibition (IC50). In series [2], this compound yielded a hemolysis at 1 h, 100 ug/ml of 7.5%; a hemolysis at 1 h, 200 ug/ml of 9.5%; a hemolysis at 1 h, 400 ug/ml of 12%; a hemolysis at 1 h, 600 ug/ml of 12.4%. In series [2], this compound returned a hemolysis at 1 h, 800 ug/ml of 13.2% and a hemolysis at 1 h, 1000 ug/ml of 13.9%.
On to `N#Cc1ccc(C2N=C3SCC(=O)N3C(=O)C2C#N)cc1` (centres unmarked) [Compound 6, 7-(4-Cyanophenyl)-3,5-dioxo-2,3,6,7-tetrahydro-5H-thiazolo[3,2-a]pyrimidine-6-carbonitrile], for which the “IC50ug/ml (DPPH scavenging)” value in series [1] was 46.69 µg/mL (≈ 158 µM). In series [2], this compound came in with a hemolysis at 1 h, 100 ug/ml of 2.1%; a hemolysis at 1 h, 200 ug/ml of 3.1%; a hemolysis at 1 h, 400 ug/ml of 4%; a hemolysis at 1 h, 600 ug/ml of 4.6%. Further, in series [2], the hemolysis at 1 h, 800 ug/ml amounted to 12.8% and the hemolysis at 1 h, 1000 ug/ml was found to be 14.3%.
In the case of `Cc1cc(C=C2SC(=Nc3ccccc3)NC2=O)c(C)n1-c1ccccc1` [CHEMBL599702], in the series on hERG, the “hERG Blocker / Non-Blocker annotation” value was “Non-Blocker”.
